Experimental data taken from US10131652B2, “Pyrimidinyloxy benzene derivatives as herbicides” (E. I. DU PONT DE NEMOURS AND COMPANY, priority 2014, dated 2018).

Experiments:
Assay in all cases: Test D pre-/postemergence plant response
Type in all cases: in vivo
[1] = tested on: velvetleaf (Abutilon theophrasti)
Summary of the method: (§1)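 Sown seed (loam/sand soil) treated preemergence; emerged plants, 1- to 4-leaf stage and 2 to 18 cm, treated postemergence in peat/vermiculite medium. Greenhouse incubation 13–15 d. Endpoint: visual 0–100 rating versus untreated.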

[2] = tested on: blackgrass (Alopecurus myosuroides)
Summary of the method: as §1

corn (Zea mays) = tested on: corn (Zea mays)
Summary of the method: as §1

[3] = tested on: morningglory (Ipomoea coccinea)
Summary of the method: as §1

[4] = tested on: large (Lg) crabgrass (Digitaria sanguinalis)
Summary of the method: as §1

[5] = tested on: yellow nutsedge (Cyperus esculentus)
Summary of the method: as §1

[6] = tested on: waterhemp (common waterhemp, Amaranthus rudis)
Summary of the method: as §1

[7] = tested on: barnyardgrass (Echinochloa crus-galli)
Summary of the method: as §1

[8] = tested on: pigweed (Amaranthus retroflexus)
Summary of the method: as §1

[9] = tested on: galium (catchweed bedstraw, Galium aparine)
Summary of the method: as §1

[10] = tested on: johnsongrass (Sorghum halepense)
Summary of the method: as §1

[11] = tested on: winter wheat (Triticum aestivum)
Summary of the method: as §1

[12] = tested on: giant foxtail (Setaria faberii)
Summary of the method: as §1

[13] = tested on: ragweed (common ragweed, Ambrosia elatior)
Summary of the method: as §1

[14] = tested on: lambsquarters (Chenopodium album)
Summary of the method: as §1

[15] = tested on: Italian ryegrass (Lolium multiflorum)
Summary of the method: as §1

soybean (Glycine max) = tested on: soybean (Glycine max)
Summary of the method: as §1

[16] = tested on: oilseed rape (Brassica napus)
Summary of the method: as §1

[17] = Postemergence, 31 g ai/ha, scale 0 to 100 (0 no effect, 100 complete control)
[18] = Postemergence, 62 g ai/ha, scale 0 to 100, 0 no effect, 100 complete control
[19] = Postemergence, 125 g ai/ha, scale 0 to 100, 0 no effect, 100 complete control
[20] = Preemergence, 16 g ai/ha, scale 0 to 100 (0 no effect, 100 complete control)
[21] = Preemergence, 31 g ai/ha, scale 0 to 100 (0 no effect, 100 complete control)
[22] = Preemergence, 62 g ai/ha, scale 0 to 100 (0 no effect, 100 complete control)

Cc1cc(-c2c(F)cccc2Oc2ncc(Cl)cn2)on1 [Compound 229]
Plant response rating (scale 0 to 100), Velvetleaf ([1]; Postemergence, 16 g ai/ha): 15
Velvetleaf plant response rating [1, 17]: 60
Velvetleaf plant response rating [1, 18]: 45
Plant response rating, Velvetleaf [1, 19]: 70
Plant response rating (scale 0 to 100), Velvetleaf ([1]; Preemergence, 125 g ai/ha): 100
Plant response rating, Velvetleaf [1, 20]: 70
Plant response rating, Velvetleaf [1, 21]: 90
Plant response rating, Velvetleaf [1, 22]: 100
Plant response rating (scale 0 to 100), Blackgrass ([2]; Postemergence, 16 g ai/ha): 0
Blackgrass plant response rating [2, 17]: 10
Plant response rating, Blackgrass [2, 18]: 15
Plant response rating, Blackgrass [2, 19]: 10
Plant response rating (scale 0 to 100), Blackgrass ([2]; Preemergence, 125 g ai/ha): 85
Plant response rating, Blackgrass [2, 20]: 15
Plant response rating, Blackgrass [2, 21]: 15
Plant response rating, Blackgrass [2, 22]: 70
Plant response rating (scale 0 to 100), Corn (corn (Zea mays); Postemergence, 16 g ai/ha): 5
Corn plant response rating (corn (Zea mays); [17]): 20
Plant response rating, Corn (corn (Zea mays); [18]): 5
Plant response rating, Corn (corn (Zea mays); [19]): 5
Plant response rating (scale 0 to 100), Corn (corn (Zea mays); Preemergence, 125 g ai/ha): 40
Plant response rating, Corn (corn (Zea mays); [20]): 0
Plant response rating, Corn (corn (Zea mays); [21]): 5
Plant response rating, Corn (corn (Zea mays); [22]): 5
Plant response rating (scale 0 to 100), Morningglory ([3]; Postemergence, 16 g ai/ha): 40
Morningglory plant response rating [3, 17]: 25
Morningglory plant response rating [3, 18]: 25
Plant response rating, Morningglory [3, 19]: 35
Plant response rating (scale 0 to 100), Morningglory ([3]; Preemergence, 125 g ai/ha): 45
Plant response rating, Morningglory [3, 20]: 0
Plant response rating, Morningglory [3, 21]: 0
Plant response rating, Morningglory [3, 22]: 35
Plant response rating (scale 0 to 100), Crabgrass, Large ([4]; Postemergence, 16 g ai/ha): 0
Crabgrass, Large plant response rating [4, 17]: 0
Plant response rating, Crabgrass, Large [4, 18]: 5
Plant response rating, Crabgrass, Large [4, 19]: 5
Plant response rating (scale 0 to 100), Crabgrass, Large ([4]; Preemergence, 125 g ai/ha): 100
Plant response rating, Crabgrass, Large [4, 20]: 75
Plant response rating, Crabgrass, Large [4, 21]: 85
Plant response rating, Crabgrass, Large [4, 22]: 100
Plant response rating (scale 0 to 100), Nutsedge, Yellow ([5]; Postemergence, 16 g ai/ha): 0
Nutsedge, Yellow plant response rating [5, 17]: 0
Nutsedge, Yellow plant response rating [5, 18]: 10
Plant response rating, Nutsedge, Yellow [5, 19]: 10
Plant response rating (scale 0 to 100), Nutsedge, Yellow ([5]; Preemergence, 125 g ai/ha): 45
Plant response rating, Nutsedge, Yellow [5, 20]: 0
Plant response rating, Nutsedge, Yellow [5, 21]: 0
Plant response rating, Nutsedge, Yellow [5, 22]: 10
Plant response rating (scale 0 to 100), Waterhemp ([6]; Postemergence, 16 g ai/ha): 60
Waterhemp plant response rating [6, 17]: 70
Waterhemp plant response rating [6, 18]: 80
Plant response rating, Waterhemp [6, 19]: 85
Plant response rating (scale 0 to 100), Waterhemp ([6]; Preemergence, 125 g ai/ha): 98
Plant response rating, Waterhemp [6, 20]: 95
Plant response rating, Waterhemp [6, 21]: 100
Plant response rating, Waterhemp [6, 22]: 98
Plant response rating (scale 0 to 100), Barnyardgrass ([7]; Postemergence, 16 g ai/ha): 5
Barnyardgrass plant response rating [7, 17]: 5
Plant response rating, Barnyardgrass [7, 18]: 5
Plant response rating, Barnyardgrass [7, 19]: 10
Plant response rating (scale 0 to 100), Barnyardgrass ([7]; Preemergence, 125 g ai/ha): 100
Plant response rating, Barnyardgrass [7, 20]: 15
Plant response rating, Barnyardgrass [7, 21]: 55
Plant response rating, Barnyardgrass [7, 22]: 65
Plant response rating (scale 0 to 100), Pigweed ([8]; Postemergence, 16 g ai/ha): 55
Pigweed plant response rating [8, 17]: 60
Pigweed plant response rating [8, 18]: 70
Plant response rating, Pigweed [8, 19]: 80
Plant response rating (scale 0 to 100), Pigweed ([8]; Preemergence, 125 g ai/ha): 100
Plant response rating, Pigweed [8, 20]: 100
Plant response rating, Pigweed [8, 21]: 100
Plant response rating, Pigweed [8, 22]: 100
Plant response rating (scale 0 to 100), Galium ([9]; Postemergence, 16 g ai/ha): 70
Galium plant response rating [9, 17]: 70
Plant response rating, Galium [9, 18]: 65
Plant response rating, Galium [9, 19]: 80
Plant response rating (scale 0 to 100), Galium ([9]; Preemergence, 125 g ai/ha): 98
Plant response rating, Galium [9, 20]: 40
Plant response rating, Galium [9, 21]: 80
Plant response rating, Galium [9, 22]: 98
Plant response rating (scale 0 to 100), Johnsongrass ([10]; Postemergence, 16 g ai/ha): 0
Johnsongrass plant response rating [10, 17]: 0
Plant response rating, Johnsongrass [10, 18]: 0
Plant response rating, Johnsongrass [10, 19]: 25
Plant response rating (scale 0 to 100), Johnsongrass ([10]; Preemergence, 125 g ai/ha): 70
Plant response rating, Johnsongrass [10, 20]: 10
Plant response rating, Johnsongrass [10, 21]: 10
Plant response rating, Johnsongrass [10, 22]: 45
Plant response rating (scale 0 to 100), Wheat ([11]; Postemergence, 16 g ai/ha): 0
Wheat plant response rating [11, 17]: 10
Wheat plant response rating [11, 18]: 5
Plant response rating, Wheat [11, 19]: 10
Plant response rating (scale 0 to 100), Wheat ([11]; Preemergence, 125 g ai/ha): 15
Plant response rating, Wheat [11, 20]: 0
Plant response rating, Wheat [11, 21]: 0
Plant response rating, Wheat [11, 22]: 0
Plant response rating (scale 0 to 100), Foxtail, Giant ([12]; Postemergence, 16 g ai/ha): 0
Foxtail, Giant plant response rating [12, 17]: 5
Plant response rating, Foxtail, Giant [12, 18]: 5
Plant response rating, Foxtail, Giant [12, 19]: 15
Plant response rating (scale 0 to 100), Foxtail, Giant ([12]; Preemergence, 125 g ai/ha): 98
Plant response rating, Foxtail, Giant [12, 20]: 5
Plant response rating, Foxtail, Giant [12, 21]: 70
Plant response rating, Foxtail, Giant [12, 22]: 90
Plant response rating (scale 0 to 100), Ragweed ([13]; Postemergence, 16 g ai/ha): 35
Ragweed plant response rating [13, 17]: 50
Ragweed plant response rating [13, 18]: 70
Plant response rating, Ragweed [13, 19]: 60
Plant response rating (scale 0 to 100), Ragweed ([13]; Preemergence, 125 g ai/ha): 95
Plant response rating, Ragweed [13, 20]: 35
Plant response rating, Ragweed [13, 21]: 50
Plant response rating, Ragweed [13, 22]: 55
Plant response rating (scale 0 to 100), Lambsquarters ([14]; Postemergence, 16 g ai/ha): 60
Lambsquarters plant response rating [14, 17]: 70
Lambsquarters plant response rating [14, 18]: 70
Plant response rating, Lambsquarters [14, 19]: 85
Plant response rating (scale 0 to 100), Lambsquarters ([14]; Preemergence, 125 g ai/ha): 95
Plant response rating, Lambsquarters [14, 20]: 35
Plant response rating, Lambsquarters [14, 21]: 80
Plant response rating, Lambsquarters [14, 22]: 80
Plant response rating (scale 0 to 100), Ryegrass, Italian ([15]; Postemergence, 16 g ai/ha): 0
Ryegrass, Italian plant response rating [15, 17]: 0
Ryegrass, Italian plant response rating [15, 18]: 0
Plant response rating, Ryegrass, Italian [15, 19]: 5
Plant response rating (scale 0 to 100), Ryegrass, Italian ([15]; Preemergence, 125 g ai/ha): 60
Plant response rating, Ryegrass, Italian [15, 20]: 0
Plant response rating, Ryegrass, Italian [15, 21]: 20
Plant response rating, Ryegrass, Italian [15, 22]: 20
Plant response rating (scale 0 to 100), Soybean (soybean (Glycine max); Postemergence, 16 g ai/ha): 20
Soybean plant response rating (soybean (Glycine max); [17]): 40
Soybean plant response rating (soybean (Glycine max); [18]): 45
Plant response rating, Soybean (soybean (Glycine max); [19]): 70
Plant response rating (scale 0 to 100), Soybean (soybean (Glycine max); Preemergence, 125 g ai/ha): 95
Plant response rating, Soybean (soybean (Glycine max); [20]): 5
Plant response rating, Soybean (soybean (Glycine max); [21]): 35
Plant response rating, Soybean (soybean (Glycine max); [22]): 60
Plant response rating (scale 0 to 100), Oilseed Rape ([16]; Postemergence, 16 g ai/ha): 45
Oilseed Rape plant response rating [16, 17]: 70
Oilseed Rape plant response rating [16, 18]: 60
Plant response rating, Oilseed Rape [16, 19]: 80
Plant response rating (scale 0 to 100), Oilseed Rape ([16]; Preemergence, 125 g ai/ha): 100
Plant response rating, Oilseed Rape [16, 20]: 90
Plant response rating, Oilseed Rape [16, 21]: 100
Plant response rating, Oilseed Rape [16, 22]: 100
